In patent US7375085B1, “Melanocyte-stimulating hormone inhibitors” (Ajinomoto Co., Inc., priority 1999, dated 2008):
pIC50: −log10 of the molar value. Where two headings read alike, the source gives them in different places. Non-standard residues stand in square brackets, D forms with d. Residues, ends and D or L forms follow the SMILES beside them. 1Nal = N[C@@H](Cc1cccc2ccccc12)C(=O)O; d1Nal = N[C@H](Cc1cccc2ccccc12)C(=O)O; d2Nal = N[C@H](Cc1ccc2ccccc2c1)C(=O)O

Key:
[1] = system: Human melanocytes; assay: Test on suppression of the melanin formation caused by human melanocytes (MSH added); format: cell-based; conditions: for Melanin formation suppressing activity (evaluation class): class of minimum concentration showing melanin formation suppressing activity; for Suppression rate of the melanin formation: human melanocytes + MSH, 6th day
Experimental: Human melanocytes in logarithmic growth phase were treated with trypsin and inoculated to a 6-well plate with “Medium 154s” (manufactured by Kurabo Industries Ltd., containing a growth factor (HMGS)), in an amount of 1.5×10^5 per 1 well in terms of cell number. The cells were cultured at 37° C. in a carbon dioxide incubator, the CO2 concentration being 5%, for 1 day. Thereafter, rinsing was carried out with the use of HBS (Hepes Buffer Saline), followed by medium replacement with “MCDB153” (containing fetal bovine serum, insulin, b-FGF, transferrin, and tocopherol), and followed by culturing for further 2 days. A whitening agent (containing a compound to be tested) was prepared with “MCDB153” (containing fetal bovine serum, insulin, b-FGF, transferrin, and tocopherol)+melanocyte-stimulating hormone in such way that the concentration would be 200 μM, 20 μM, or 2 μM, and was added to the 6-well plate. Also, a further 6-well plate culture was carried out with the use of “MCDB153” (containing fetal bovine serum, insulin, b-FGF, transferrin, and tocopherol)+melanocyte-stimulating hormone without the whitening agent, and still further a 6-well plate culture was carried out with the use of “MCDB153” (containing fetal bovine serum, insulin, b-FGF, transferrin, and tocopherol) alone, at the same time. The medium replacement with the above “MCDB153” (containing fetal bovine serum) containing a whitening agent was carried out twice every 2 days.
After the first addition of the whitening agent, the effect of suppressing the melanin formation was confirmed on the 6th day. Namely, the medium on each 6-well plate was removed by suction, and the wells were rinsed with HBS. Thereafter, the 6-well plate was air-dried, and ⅕M NaOH (230 μl) was added to the wells to dissolve the melanin out of the melanocytes. The solution (200 μl) was evaluated by Abs (absorbance) on a microplate reader (475 nm). The suppression rate of the melanin formation by each compound tested was calculated according to the following equation (1). The suppression rate of the melanin formation(%)={1−(A1−A3)/(A2−A3)}×100 (1) • A1: absorbance at 475 nm when both of the compound to be tested and MSH were added. • A2: absorbance at 475 nm when the compound to be tested was not added and MSH was added. • A3: absorbance at 475 nm when both of the compound to be tested and MSH were not added.

[2] = system: B16 melanoma cells; assay: Measurement of 50% inhibitory concentration of cAMP production (IC50) with 10 nM melanocyte-stimulating hormone; format: cell-based
Experimental: The 50% inhibitory concentration of cAMP production (IC50) according to the present invention regarding the compounds having a melanocyte-stimulating hormone (MSH) inhibitory activity is measured and defined as follows.
Namely, B16 melanoma cells are inoculated on a 12-well plate in such way that 1×10^4 cells are inoculated into 1 well, and cultured at 37° C. for 48 hours in the presence of 5% CO2. After the culturing, the wells are washed with 1 ml of a serum-free medium (serum-free D-MEM medium) per 1 well. Then, a serum-free medium containing 1 mM 3-isobutyl-1-methylxanthine, 10 nM melanocyte-stimulating hormone and a compound to be tested at a different concentration is added in an amount of 1 ml per 1 well, followed by incubation at 37° C. for 5 minutes. After the incubation, the medium is completely removed from the plate, 1 ml of ice-cooled 2.5% perchloric acid is exactly added thereto, and then the whole is incubated for 30 minutes under ice-cooling to extract cAMP from within the cells. After the incubation, the extract solution is neutralized by adding 4.2M potassium hydroxide solution in an amount of […] per 1 well.
The neutralized extract solution is centrifuged at 4° C. at 12,000 rpm for 10 minutes, and the amount of cAMP in the supernatant is quantitatively determined using “Biotrak cAMP EIA System” (manufactured by Amersham Pharmacia Biotech), as follows. By the way, all the operations are carried out at 5° C. or lower. First, cAMP authentic samples are prepared so as to be 0 to 3200 fM, and each sample is placed in an amount of 100 μl in a 96-well plate. Then, 200 μl of 0.05M acetate buffer (pH 5.8, containing 0.02% serum and 0.01% antiseptic agent) is placed in an NSB well (Non-specific Binding Well) and 100 μl in a blank well. In a sample well is placed 100 μl of a sample to be evaluated. In each of all the wells except for the blank well and the NSB well is added 100 μl of antiserum. The 96-well plate is capped, slowly shaken, and incubated at 3 to 5° C. for 2 hours. After the incubation, 50 μl of cAMP peroxidase is added to each of all the wells except for the blank well. The plate is capped and incubated at 3 to 5° C. for 1 hour. After the incubation, each of all the wells is washed four times with 400 μl in total of 0.01M phosphate buffer (pH 7.5, containing 0.05% “Tween 20”). The liquid remaining in the wells is removed by placing the plate in such manner that the opening parts of the wells face downward, and patting the plate on a paper.
To each of all the wells is added 150 μl of an enzyme substrate, and the plate is shaken at 15 to 30° C. for 1 hour. After the shaking, 100 μl of 1 M sulfuric acid is added to each well, and absorbance at 450 nm is measured. A calibration curve is prepared from the absorbance of the cAMP authentic samples and the amount of cAMP of each sample is determined.
The 50% inhibitory concentration of cAMP production (IC50) is defined by the value in terms of nM unit, of a 50% inhibitory concentration obtained by the above procedures, of a test compound against cAMP production with 10 nM melanocyte-stimulating hormone.
According to the method of measuring the 50% inhibitory concentration of cAMP production (IC50) explained in the above, IC50 was measured on the agents listed in following Table 2, i.e., D-1-Nal-Arg-LeuNH2, D-2-Nal-Arg-LeuNH2, L-1-Nal-Arg-LeuNH2 and D-Trp-Arg-LeuNH2.

[3] = Test of stability during storage (coloring of aqueous 0.1% solution, APHA method); format: physicochemical; conditions: for Degree of coloring (APHA Standard color): aqueous 0.1% solution stored at 4° C. for 6 months; for Stability during storage (evaluation class): class of degree of coloring, APHA standard colors
Experimental: An aqueous 0.1% solution of D-2-Nal-Arg-LeuNH2 of the present invention, and that of D-Trp-Arg-LeuNH2 which is a known melanocyte-stimulating hormone inhibitor were prepared and stored at 4° C. for 6 months, respectively. The stability during storage was evaluated by comparing the degree of coloring with standard colors of APHA (American Public Healthy Association) method.

[4] = system: Weiser-Maples brown guinea pigs; assay: Inhibitory test of melanocyte-stimulating hormone in living body (test of suppressing pigmentation in brown guinea pigs); format: in vivo, guinea pig; set-up: key: ◯: positive pigmentation suppressing effect; X: no pigmentation suppressing effect; —: not tested; conditions: 50 mM in 50% ethanol-water applied to skin, UVB irradiation, ΔL* vs 50% ethanol
Experimental: Inhibitory test of melanocyte-stimulating hormone was carried out by repeating the application of each test compound on a guinea pig and irradiation with ultraviolet rays, followed by measuring the degree of coloring, as follows.
D-2-Nal-Arg-LeuNH2 (50 mM, dissolved in 50% ethanol-water) and D-Trp-Arg-LeuNH2 (50 mM, dissolved in 50% ethanol-water) were used, and 50% ethanol-water was used as the control.
Male Weiser-Maples brown guinea pigs (4 weeks old) were purchased from Tokyo Experimental Animal K.K. and used after pre-reared for 7 weeks.
The brown guinea pigs were individually fixed by means of a fixing instrument and shaved in a square shape of about 3 cm×3 cm on their back with the use of a pair of hair clippers “THRIVE MODEL 6000AD” (manufactured by Natsume Seisakusyo) and “Home Hair Clipper Ceramic ER722” (manufactured by National) and an electric shaver “Dual 1500AC/RC” (manufactured by BRAUN). The skin after shaved was wiped with a water-soaked absorbent cotton, and the moisture was removed with a paper towel “KIMWIPE” (manufactured by CRECIA).
The skin of the back of the shaven brown guinea pigs was wiped with an ethanol-soaked absorbent cotton, and the horny layer having an area of about 2 cm×2 cm was subjected to tape stripping five times with the use of an adhesive tape “Scotch 313D” (manufactured by 3M). […]

[5] = B16 melanoma cells, 10 nM melanocyte-stimulating hormone, 5 min incubation, read-out: 50% inhibitory concentration (IC50) of cAMP production
[6] = class of 50% inhibitory concentration in the test, read-out: MSH inhibitory activity (evaluation class)

pIC50 [2, 5] | pIC50 [2, 6] | Degree of coloring (APHA Standard color) [3] | Stability during storage (evaluation class) [3] | Compound | Melanin formation suppressing activity (evaluation class) [1] | Suppression rate of the melanin formation ([1]; concentration 20 μM) | Suppression rate of the melanin formation ([1]; concentration 200 μM) | Suppression rate of the melanin formation ([1]; concentration 2 μM) | Brown Guinea pig pigmentation suppressing test (evaluation) [4]
6.27 | 6.00 to 7.00 | – | – | CC(C)C[C@H](NC(=O)[C@H](CCCNC(=N)N)NC(=O)[C@H](N)Cc1cccc2ccccc12)C(N)=O [D-1-Nal-Arg-LeuNH2] (H-[d1Nal]-Arg-Leu-NH2) | B (11 to 100 μM) | 43% | 52% | – | –
7.38 | ≥ 7.00 | 20 APHA | A (20 or less) | CC(C)C[C@H](NC(=O)[C@H](CCCNC(=N)N)NC(=O)[C@H](N)Cc1ccc2ccccc2c1)C(N)=O [D-2-Nal-Arg-LeuNH2] (H-[d2Nal]-Arg-Leu-NH2) | A (1 to 10 μM) | 51% | 70% | 49% | ◯
6.64 | 6.00 to 7.00 | 200 APHA | C (101 or more) | CC(C)C[C@H](NC(=O)[C@H](CCCNC(=N)N)NC(=O)[C@H](N)Cc1c[nH]c2ccccc12)C(N)=O [D-Trp-Arg-LeuNH2, reference compound] (H-[dW]-Arg-Leu-NH2) | B (11 to 100 μM) | 24% | 57% | – | X
6.33 | 6.00 to 7.00 | – | – | CC(C)C[C@H](NC(=O)[C@H](CCCNC(=N)N)NC(=O)[C@@H](N)Cc1cccc2ccccc12)C(N)=O [L-1-Nal-Arg-LeuNH2] (H-[1Nal]-Arg-Leu-NH2) | B (11 to 100 μM) | 8% | 28% | – | –
